# Reference: patent US6281349A, “Method for nucleic acid purification using iodine” (priority 2000, dated 2001)
# Tests used:
# Format in all cases: biochemical
# [1] = biological target: T1, Micrococcal nuclease (MN) (Boehringer Mannheim) (Staphylococcus aureus, UniProt P00644); assay: Residual nuclease activity test after iodine miniprep (Mg/Ca incubation, supercoiled to nicked plasmid); settings: 5 micrograms MN (300 units) added to cells, 5 mM MgCl2, CaCl2, 90 minutes at 37° C.
# T1 construct: purchased Boehringer Mannheim
# Experimental: (§1) Cells from 1 mL of terrific broth culture of pUC18 in NM522 (EndoI+) were resuspended in 0.2 mL of resuspension buffer (A). #1: No exogenous nuclease, #2:5 micrograms Micrococcal nuclease (MN) (300 units Boehringer Mannheim), #3:5 Units DNaseI (Promega), were added to the respective cell samples before processing for the preparation of the plasmid. After processing by the preferred embodiment Iodine miniprep procedure an aliquot of each sample was made 5 mM each in MgCl2, CaCl2 and 20 mM Tris.HCl pH 8.3. After 90 minutes at 37° C. these were electrophoresed (bottom group) together with aliquots that had not been exposed to Mg/Ca (top group) in a 1% agarose gel with SYBR green II fluorescent dye for detection of nucleic acids.
# [2] = biological target: T2, Endonuclease I (Endo I), endogenous, E. coli NM522 (EndoI+) (Escherichia coli, UniProt P25736); assay: as above; settings: preferred embodiment, 5 mM MgCl2, CaCl2, 90 minutes at 37° C., no exogenous nuclease
# T2 construct: due to either the endogenous Endo I or to residual activity of either of the added nucleases; endogenous in cells; host or cells: E. coli NM522 (EndoI+)
# Experimental: as §1
# [3] = biological target: T3, DNaseI (Promega) (Bos taurus, UniProt P00639); assay: as above; settings: 5 Units DNaseI added to cells, 5 mM MgCl2, CaCl2, 90 minutes at 37° C.
# T3 construct: purchased Promega
# Experimental: as §1
# [4] = biological target: T4, Ribonuclease A (RNAase A, pancreatic ribonuclease) (Bos taurus, UniProt P61823); assay: Residual RNAase activity test of plasmids purified with or without iodine (wheat germ rRNA degradation); settings: 50 mM iodine during potassium acetate precipitation, RNAase A 10 micrograms/mL in cell resuspension buffer, 37° C., 30 min
# T4 sequence (P61823 27-150): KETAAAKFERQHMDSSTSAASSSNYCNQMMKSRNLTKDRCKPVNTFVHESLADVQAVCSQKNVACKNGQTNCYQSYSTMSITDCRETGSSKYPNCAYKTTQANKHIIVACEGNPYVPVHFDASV
# Experimental: Plasmids were purified by two methods both using RNAase A at 10 micrograms/mL in the cell resuspension buffer. In the right hand sample 50 mM iodine was included during potassium acetate precipitation of unwanted cellular components. In the center lane iodine was not included in the potassium acetate buffer. These purified plasmid preparations, "plasmid+I2 " and "plasmid-I2 ", respectively were incubated with wheat germ RNA in a sensitive assay designed to test for the presence residual RNAase activity. Wheat germ rRNA (0.5 micrograms in 5 microlitres of resuspension buffer: Soln A) was incubated at 37° C. for 30 min either alone or with 2 microlitres of purified plasmid dissolved in Soln A. The resulting samples were electrophoresed in the presence of SYBR green II to detect the nucleic acids. The 28s and 18s components of wheat germ rRNA were not degraded when incubated with buffer alone (left channel) or with plasmids purified by the method employing RNAase A and iodine (right channel). The rRNA was degraded when incubated with plasmids purified with RNAase and without iodine (center channel).
# T2 sequence (P25736 23-235): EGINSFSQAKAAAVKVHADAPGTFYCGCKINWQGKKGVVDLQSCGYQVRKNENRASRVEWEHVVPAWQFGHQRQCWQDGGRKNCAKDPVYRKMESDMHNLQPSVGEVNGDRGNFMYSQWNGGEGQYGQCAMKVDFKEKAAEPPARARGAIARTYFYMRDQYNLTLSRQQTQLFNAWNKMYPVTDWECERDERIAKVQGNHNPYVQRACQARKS
# T3 sequence (P00639 23-282): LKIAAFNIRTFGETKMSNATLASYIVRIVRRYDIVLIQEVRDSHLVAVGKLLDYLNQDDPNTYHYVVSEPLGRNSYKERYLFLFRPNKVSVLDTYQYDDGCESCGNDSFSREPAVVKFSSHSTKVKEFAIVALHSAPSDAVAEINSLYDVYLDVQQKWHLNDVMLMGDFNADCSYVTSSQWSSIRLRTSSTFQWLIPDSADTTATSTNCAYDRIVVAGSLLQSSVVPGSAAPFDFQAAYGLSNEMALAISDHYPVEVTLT
smiles,measurement,setting,value
II [iodine],inactivation of Micrococcal nuclease by iodine,[1],lack of conversion of supercoiled plasmid (I) to nicked (II)
same,inactivation of Endo I by iodine,[2],lack of conversion of supercoiled plasmid (I) to nicked (II)
same,inactivation of DNaseI by iodine,[3],lack of conversion of supercoiled plasmid (I) to nicked (II)
same,inactivation of RNase by iodine,[4],effective in inactivating RNAase
